Experiments:
[1] = tested on: NeutrAvidin-specific antibody; test: NeutrAvidin-specific antibody titer in sera of mice given biotinylated peptide/NeutrAvidin complex, ELISA (Test Example 12); type: in vivo, mouse; details: 5 μg as NeutrAvidin, base of tail Day 0 and Day 10, serum Day 17, IgG
Description: A biotinylated peptide was synthesized by linking the N-terminus of each of FL4 identified in Test Example 1, a peptide Mut 1 (amino acid sequence: ASYKAIR (SEQ ID NO: 2)) derived from FL4 of which the 1st amino acid residue was substituted by an alanine residue, a peptide Mut 2 (amino acid sequence: VAYKAIR (SEQ ID NO: 3)) derived from FL4 of which the 2nd amino acid residue was substituted by an alanine residue, a peptide Mut 3 (amino acid sequence: VSAKAIR, SEQ ID NO: 43) derived from FL4 of which the 3rd amino acid residue was substituted by an alanine residue, and a peptide Mut 4 (amino acid sequence: VSYKAAR, SEQ ID NO: 44) derived from FL4 of which the […] amino acid residue was substituted by an alanine residue to biotin. Subsequently, a biotinylated peptide/NeutrAvidin complex was produced by mixing each of the obtained biotinylated peptides and NeutrAvidin.
50 μL of physiological saline containing 5 μg of the complex or NeutrAvidin in terms of NeutrAvidin amount was administered into the base of the tail of each 7-week old C57BL/6 mouse on Day 0 and Day 10, and blood was collected on Day 17. As a control, a test was also carried out in the case where only physiological saline was administered in the same manner Meanwhile, in these tests, five mice in each group were used.
Sera were obtained from the blood collected on Day 17 and NeutrAvidin-specific antibody titer (IgG) in the sera was measured by ELISA. In FIG. 18, “NA” refers to the case of administration of NeutrAvidin, and “NA-FL4” refers to the case of administration of the biotinylated FL4/NeutrAvidin complex. Other peptides are shown in the same display format. Further, in FIG. 18, “cont” refers to the case where physiological saline was administered.

[2] = tested on: dendritic cells contained in splenocytes; test: Binding of phage clones to dendritic cells contained in splenocytes, flow cytometry (Test Example 6); type: cell-based, mouse; details: phage clone 1.6×10^10 pfu/mL, 1×10^5 splenocytes
Procedure: (§1) Specifically, 1×10^5 splenocytes collected from mice and 1.6×10^10 pfu/mL of each phage clone were mixed, and the biotinylated antibody to the phage was added. Further, streptavidin modified with a fluorescent dye was added, and the binding of the phage to splenocytes was evaluated by flow cytometric analysis.

[3] = tested on: mouse-derived dendritic cells (FL-DCs); test: Binding of phage clones to mouse-derived dendritic cells by flow cytometric analysis (Test Example 1); type: cell-based; details: phage clone displaying the peptide, 1.6×10^10 pfu/mL, 1×10^5 mouse-derived dendritic cells, flow cytometry with antibody against the phage
Procedure: Meanwhile, in the following test examples, unless otherwise indicated, as mouse-derived dendritic cells, dendritic cells (FL-DCs) that were obtained by culturing murine bone marrow cells in the presence of Flt3-L (final concentration 100 ng/ml) for 1 week to induce differentiation were used. In addition, in the following test examples, FL-DCs were analyzed in some cases separately for Plasmacytoid DCs (pDCs), CD11b positive dendritic cells (CD11b^+ DCs), and CD11b negative dendritic cells (CD11b^− DCs). Among the mouse-derived dendritic cells, pDCs is a group of CD11c positive and B220 positive cells; CD11b^+ DCs is a group of CD11c positive, B220 negative and CD11b positive cells among mouse-derived dendritic cells; CD11b^− DCs is a group of CD11c positive, B220 negative, and CD11b negative cells among mouse-derived dendritic cells.
Each of phages recovered by three panning operations was monocloned and amplified. 1×10^5 mouse-derived dendritic cells and 1.6×10^10 pfu/mL of each phage clone were mixed, and then the phage was assayed for the binding to dendritic cells by flow cytometric analysis using an antibody against the phage.
About 60 phage clones obtained were subjected to flow cytometric analysis as described above. As a result, 37 clones shown in Table 1 were identified as clones capable of binding to dendritic cells. […]

[4] = tested on: CD4^+ T cells contained in splenocytes; test: Binding of phage clones to CD4+ T cells contained in splenocytes, flow cytometry (Test Example 6); type: cell-based, mouse; details: phage clone 1.6×10^10 pfu/mL, 1×10^5 splenocytes
Procedure: as §1

EG7 cells = test: Tumor size in mice transplanted with EG7 cells (Test Example 9); type: in vivo, mouse; details: EG7 tumor bearing C57BL/6 mice, 50 μg as SL8 with 50 μg CpG oligodeoxynucleotide subcutaneously into the ears, compared with physiological saline
Procedure: In this test, whether the regression effect of cancer was observed by SL8-specific CD8^+ CTLs induced by SL8-FL4 was evaluated. In this test, EG7 cells (cancer cells expressing OVA protein in EL4 cells derived from thymoma of C57BL/6 mouse) were used as cancer cells. Specific test methods are as follows.
1 (10^6 EG7 cells were transplanted into the abdomen of 7-week old C57BL/6 mice to prepare tumor bearing mice. 50 μL of physiological saline containing 50 μg of SL8-FL4 in terms of SL8 amount and 50 μg of CpG oligodeoxynucleotide (K3 type, product name “K3 Et-Free”, product number “CN-65003” manufactured by GeneDesign Inc.) was administered subcutaneously into the ears of mice after EG7 cells were transplanted and the tumor diameter reached about 5 mm (about 5 days after transplantation). Thereafter, tumor size was measured over time while breeding the mice. In addition, similar tests were carried out with regard to the case where 50 μL of physiological saline containing 50 μg SL8 and 50 μg of CpG oligodeoxynucleotide was administered, and the case where only physiological saline was administered (control). Meanwhile, in these tests, five mice in each group were used.

[5] = tested on: antigen-specific CD8^+ CTLs; test: Tetramer assay on regional lymph nodes, CD8+ CTL inducibility (Test Example 8); type: in vivo, mouse; details: co-administered with CpG oligodeoxynucleotide, 50 μg in terms of SL8 subcutaneously into the ears Day 0, lymph nodes Day 7
Procedure: A fusion peptide (SL8-FL4) was prepared by linking the N-terminus of the peptide consisting of the amino acid sequence of FL4 to the C-terminus of SL8 (SIINFEKL; SEQ ID NO: 40) which is an MHC class I epitope peptide in chicken ovalbumin (OVA). Specifically, the amino acid sequence of the fusion peptide is [Amino acid sequence of SL8 (SIINFEKL; SEQ ID NO: 40)]-[VSYKAIR; SEQ ID NO: 1]. The production method of the fusion peptide was the same as that of PspA-FL4 except that a DNA molecule encoding SL8 was used. In addition, each of peptide-fusion bodies (SL8-F8 and SL8-FL4Scr) in which the peptide was fused with SL8 was prepared using each of FL8 and the scramble peptide of FL4 (FL4Scr, amino acid sequence: YRSIVKA, SEQ ID NO: 41) in the same manner. […]
The tetramer assay was carried out as follows. Lymphocytes were recovered from the regional lymph nodes, were stained with fluorescently labeled antibodies against CD44 and CD8 and a fluorescently labeled tetramer recognizing the SL8 peptide presented on H-2K^b, then were analyzed using a flow cytometer.

PspA-specific antibodies = test: PspA-specific antibody titer in sera of mice given fusion peptide, ELISA (Test Example 2); type: in vivo, mouse; details: C57BL/6 mice
Procedure: 50 μL of physiological saline containing 1 μg of the fusion peptide or PspA in terms of PspA amount was administered into the base of the tail of each of 7-week old C57BL/6J JmsSlc mice (hereinafter sometimes abbreviated as C57BL/6 mice) on Day 0 and Day 10, and blood was collected on Day 17. As a control, a test was also carried out in the case where only physiological saline was administered in the same manner. Further, a test was also carried out in the case where 50 μL of physiological saline containing 10 μg of CpG oligodeoxynucleotide (K3 type, product name “K3 Et-Free”, product number “CN-65003” manufactured by GeneDesign Inc.) in addition to 1 μg of the fusion peptide or PspA in terms of PspA amount was administered in the same manner Meanwhile, in these tests, five mice in each group were used.
Sera were obtained from the blood collected on Day 17 and PspA-specific antibody titers (IgG, IgG1, and IgG2a) in the sera were measured by ELISA. In FIGS. 3 to 5, “PspA WT” refers to PspA, “PspA-FL4” refers to the fusion peptide in which the N-terminus of a peptide obtained by binding three amino acid sequences of FL4 directly and tandemly was linked to the C-terminus of PspA, “PspA WT+CpG” refers to the case where PspA and CpG oligodeoxynucleotide were administered. In addition, in FIGS. 3 to 5, the same meaning applies to the same display format as “PspA-FL4” and “PspA WT+CpG”. […]

Streptococcus pneumoniae = Streptococcus pneumoniae challenge of mice immunized with fusion peptide (Test Example 3); type: in vivo
Procedure: The following test was carried out by using a fusion peptide (FL4-PspA, amino acid sequence: [Amino acid sequence of PspA]-[VSYKAIR; SEQ ID NO: 1]-[VSYKAIR; SEQ ID NO: 1]-[VSYKAIR; SEQ ID NO: 1]) that was prepared in Test Example 2, by linking the N-terminus of a peptide obtained by binding three amino acid sequences of FL4 directly and tandemly to the C-terminus of PspA.
Immunity induction was carried out by administering 50 μL of physiological saline containing 1 μg of FL4-PspA or PspA in terms of PspA amount into the base of the tail of each of 7-week old C57BL/6 mice on Day 0 and Day 10. Then, intranasal administration (one of the nostrils of 15 μL) of Streptococcus pneumoniae (1.7×10^9 cfu/ml: […]) was performed on Day 18, and the body weight and survival rate of each mouse after Streptococcus pneumoniae administration were determined. In addition, as a control, a test was also carried out in the case where only physiological saline was administered in the same manner without conducting immunization. Further, a test was also carried out in the case where 50 μL of physiological saline containing 10 μg of CpG oligodeoxynucleotide (K3 type, product name “K3 Et-Free”, product number “CN-65003” manufactured by GeneDesign Inc.) in addition to 1 μg of FL4-PspA or PspA in terms of PspA amount was administered in the same manner Meanwhile, in these tests, five mice in each group were used.
Meanwhile, in FIG. 6, the day on which Streptococcus pneumoniae was administered is shown as Day 0. In addition, the meanings of the abbreviations in FIG. 6 are as indicated in the column of Test Example 2 above.

## ASYKAIR (Amino acid sequence of motif sequence) [Mut 1]
[1]
  NeutrAvidin-specific antibody production: excellent production ability

## GGSKPVR (phage display; displayed peptide) [FL8]
[2]
  binding of phage clone to dendritic cells contained in splenocytes: bind to all dendritic cells contained in splenocytes
[3]
  binding of phage clone to dendritic cells: binding to bone marrow-derived dendritic cells was confirmed
[4]
  binding of phage clone to CD4+ T cells contained in splenocytes: also bound to CD4^+ T cells contained in splenocytes

## SIINFEKL [SL8, reference compound]
EG7 cells
  tumor regression effects: some tumor regression effects
[5]
  induction of antigen-specific CD8+ CTLs (tetramer assay, regional lymph nodes): could not be induced

## VAYKAIR (Amino acid sequence of motif sequence) [Mut 2]
[1]
  NeutrAvidin-specific antibody production: excellent production ability

## VSAKAIR (Mut3 peptide) [Mut 3]
[1]
  NeutrAvidin-specific antibody production: an excellent antibody-producing ability is recognized unlike the case where each of the amino acid sequences of Mut 3 and Mut 4 is contained

## VSYKAAR (Mut 4 peptide)
[1]
  NeutrAvidin-specific antibody production: an excellent antibody-producing ability is recognized unlike the case where each of the amino acid sequences of Mut 3 and Mut 4 is contained

## [Amino acid sequence of PspA]-[VSYKAIR; SEQ ID NO: 1]-[VSYKAIR; SEQ ID NO: 1]-[VSYKAIR; SEQ ID NO: 1] [PspA-FL4]
PspA-specific antibodies; 1 μg in terms of PspA into base of tail Day 0 and Day 10, serum Day 17, ELISA
  production ability of PspA-specific antibodies: remarkably improve
PspA-specific antibodies; fusion peptide without adjuvant, serum Day 17
  PspA-specific antibody titer compared with PspA and adjuvant (CpG oligodeoxynucleotide) administered at the same time: remarkably higher
Streptococcus pneumoniae; C57BL/6 mice immunized Day 0 and Day 10 (1 μg as PspA), intranasal 5.1×10^7 cfu/mouse Day 18
  body weight after administration of Streptococcus pneumoniae: no decrease in body weight was observed
Streptococcus pneumoniae; C57BL/6 mice, Streptococcus pneumoniae intranasal challenge
  infection protective ability: strong infection protective ability
Streptococcus pneumoniae; after 10 days from the administration of Streptococcus pneumoniae, C57BL/6 mice
  survival rate: 100%

— patent US11186618B2, “Dendritic-cell-targeted peptide, fusion peptide utilizing said peptide, and vaccine utilizing said fusion peptide” (The Research Foundation for Microbial Diseases of Osaka …, priority 2016, dated 2021)
